# Measured values taken from publication PMC12226424, “Enhanced discovery of bacterial laccase‐like multicopper oxidase through computer simulation and metagenomic analysis of industrial wastewater” (FEBS Open Bio, 2025).
# How the values were obtained:
# Lac4 = conditions: 100 mM acetate, 2.5 mM copper sulfate, O2; listed optimum pH 4.0, 55 °C
# Lac5-6 = system: T1, Lac5-6; conditions: 100 mM acetate, 2.5 mM copper sulfate, O2; listed optimum pH 4.0, 55 °C
# T1 construct: gene Lac5 (GenBank PP987286)
# Lac1 = conditions: 100 mM acetate, 2.5 mM copper sulfate, O2; listed optimum pH 5.0, 55 °C
# Lac9 = conditions: 100 mM acetate, 2.5 mM copper sulfate, O2; listed optimum pH 4.8, 55 °C
# Lac5 = conditions: 100 mM acetate, 2.5 mM copper sulfate, O2; listed optimum pH 4.0, 50 °C
# Lac3 = conditions: 100 mM acetate, 2.5 mM copper sulfate, O2; listed optimum pH 4.6, 60 °C
compound,measurement,setting,value
"CCn1c(=NN=c2sc3cc(S(=O)(=O)O)ccc3n2CC)sc2cc(S(=O)(=O)O)ccc21 [ABTS, 2,2′‐azinobis(3‑ethylbenzo‐6‑thiazolinesulfonic acid)]",Km,Lac4,426 µM
same,Km,Lac5-6,55 µM
same,Km,Lac1,112 µM
same,Km,Lac9,101 µM
same,Km,Lac5,63 µM
same,Km,Lac3,99 µM
